Like-named read-outs stand apart in the source and are kept apart here. Residues, ends and D or L forms follow the SMILES beside them.
T1: ACE (from rabbit lung) (Oryctolagus cuniculus, UniProt P12822)
T1 construct: ACE (from rabbit lung) were obtained from Sigma-Aldrich Co; purchased Sigma-Aldrich Co. (St. Louis, MO, USA); host or cells: rabbit lung (tissue-derived enzyme)
T1 sequence (P12822 34-1310): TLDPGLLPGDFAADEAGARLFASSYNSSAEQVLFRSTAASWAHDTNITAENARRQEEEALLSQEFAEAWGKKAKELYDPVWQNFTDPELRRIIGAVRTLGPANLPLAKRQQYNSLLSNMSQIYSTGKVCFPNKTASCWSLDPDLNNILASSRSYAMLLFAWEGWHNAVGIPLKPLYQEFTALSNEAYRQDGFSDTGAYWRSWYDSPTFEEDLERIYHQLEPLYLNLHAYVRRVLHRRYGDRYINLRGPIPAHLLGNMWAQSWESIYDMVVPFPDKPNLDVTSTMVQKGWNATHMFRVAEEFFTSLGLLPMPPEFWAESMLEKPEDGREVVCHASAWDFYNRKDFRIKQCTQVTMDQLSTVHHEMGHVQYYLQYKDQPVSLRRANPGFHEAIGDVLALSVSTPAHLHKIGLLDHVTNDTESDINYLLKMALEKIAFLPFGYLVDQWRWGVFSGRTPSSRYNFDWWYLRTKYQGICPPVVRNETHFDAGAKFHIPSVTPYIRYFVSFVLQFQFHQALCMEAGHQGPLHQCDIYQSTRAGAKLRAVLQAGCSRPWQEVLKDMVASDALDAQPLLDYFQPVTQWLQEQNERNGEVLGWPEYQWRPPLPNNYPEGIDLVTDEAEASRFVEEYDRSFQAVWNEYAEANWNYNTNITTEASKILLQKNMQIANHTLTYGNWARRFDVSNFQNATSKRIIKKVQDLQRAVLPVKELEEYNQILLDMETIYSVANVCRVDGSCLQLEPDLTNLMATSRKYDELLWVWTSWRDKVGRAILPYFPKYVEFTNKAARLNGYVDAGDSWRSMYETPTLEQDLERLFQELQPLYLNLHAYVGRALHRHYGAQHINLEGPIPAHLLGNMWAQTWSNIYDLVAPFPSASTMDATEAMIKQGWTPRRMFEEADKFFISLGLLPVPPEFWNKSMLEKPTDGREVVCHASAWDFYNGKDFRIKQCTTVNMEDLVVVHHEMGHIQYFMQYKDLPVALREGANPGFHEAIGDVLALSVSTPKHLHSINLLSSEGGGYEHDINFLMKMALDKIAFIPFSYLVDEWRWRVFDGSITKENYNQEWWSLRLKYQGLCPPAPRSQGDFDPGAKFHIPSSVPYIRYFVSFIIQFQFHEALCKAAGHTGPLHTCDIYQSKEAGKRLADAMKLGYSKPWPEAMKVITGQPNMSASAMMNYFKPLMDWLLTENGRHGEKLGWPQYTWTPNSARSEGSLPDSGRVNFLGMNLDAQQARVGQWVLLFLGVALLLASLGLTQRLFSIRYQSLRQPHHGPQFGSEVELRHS

T2: angiotensin I-converting enzyme (ACE) from rabbit lung (rabbit) (UniProt P12822)
T2 sequence: T1 sequence (P12822 34-1310)


How the values were obtained:
[1] = target: T1, ACE (from rabbit lung); test: ACE inhibitory activity (HHL substrate, RP-HPLC of hippuric acid); assay type: biochemical
Description: Wheat gluten was obtained from CF Haishi Biotechnology Ltd. Co. (Beijing, China) and kept in sealed plastic bags at room temperature until use. Alcalase 2.4L (2.4 AU/g) was purchased from Novo Nordisk (Copenhagen, Denmark). Protex 7L (1600 AU/g) and α-amylase (26,000 RAU/g) were bought from Genencor Division of Danisco (Rochester, NY, USA). Fluorescein sodium salt, Trolox, DPPH, 2,2′-azobis(2-methylpropionamidine) dihydrochloride (AAPH), hippuryl-histidyl-leucine (HHL), hippuric acid (HA), and ACE (from rabbit lung) were obtained from Sigma-Aldrich Co. (St. Louis, MO, USA). The ABTS assay kit was supplied by Beyotime Biotechnology (Haimen, China). Acetonitrile and methanol were provided by Fisher Scientific (Pittsburgh, PA, USA). Trifluoroacetic acid (TFA) was supplied by Alfa Aesar (Ward Hill, MA, USA). Synthesized peptides were obtained from Scilight Biotechnology Co., Ltd (Beijing, China). The purity of the synthesized peptides was more than 98% according to HPLC analysis. All other chemicals were of analytical grade.
The modified approach of Cushman and Cheung[68] was used to analyze ACE inhibitory activity. Briefly, the preincubation of 20 µL of sample and 30 µL of ACE solution (60 mU/mL) was performed at 37 °C for 5 min. After adding 50 µL of the substrate (7.6 mmol/L HHL in 50 mmol/L sodium borate buffer containing 300 mmol/L NaCl at pH 8.3), the 30-min incubation of the mixture was performed at ambient temperature. The reaction was ceased with 100 µL of 1.0 mol/L HCl. RP-HPLC was employed to determine the amount of HA liberated by ACE on an Inertsil ODS-SP C18 column (4.6 mm × 150 mm, Shimadzu, Kyoto, Japan). The peak area was subject to the calculation of ACE inhibitory activity.

[2] = tested on: ACE; details: cited from earlier work
[3] = target: T2, angiotensin I-converting enzyme (ACE) from rabbit lung (rabbit)
[4] = calculated from mmol/L values, read-out: ACE IC50 calculated in the units of mg/mL (converted)
[5] = synthesized peptides, read-out: ACE IC50

IC50 [1, 4]	IC50 [1, 5]	IC50 of ACE inhibitory activity (hippuric acid liberated from HHL by ACE, RP-HPLC) [3]	Molecule	further results
1.47 mM	1.47 ± 0.08 mM	–	C[C@H](N)C(=O)N1CCC[C@H]1C(=O)N[C@@H](CO)C(=O)N[C@@H](Cc1ccc(O)cc1)C(=O)O [Ala-Pro-Ser-Tyr] (H-APSY-OH)	–
1.48 mM	1.48 ± 0.11 mM	–	N=C(N)NCCC[C@H](N)C(=O)NCC(=O)NCC(=O)N[C@@H](Cc1ccc(O)cc1)C(=O)O [Arg-Gly-Gly-Tyr] (H-RGGY-OH)	–
0.599 mM	0.6 ± 0.03 mM	–	CC(C)C[C@H](N)C(=O)N[C@H](C(=O)N[C@@H](CO)C(=O)O)C(C)C [Leu-Val-Ser] (H-Leu-Val-Ser-OH)	–
2 mM	2 ± 0.13 mM	–	NC(=O)CC[C@H](NC(=O)[C@@H](N)Cc1ccc(O)cc1)C(=O)O [Tyr-Gln] (H-Tyr-Gln-OH)	–
–	–	–	Ala-His-Ser-Tyr (AHSY; printed: Ala-His-Ser-Tyr)	IC50 ([2]; isolated from cuttlefish): 0.0116 mM
–	–	–	Gly-Gly-Tyr	IC50 [2]: 0.0013 mM
–	–	0.31 mM	Leu-Tyr (peptide)	–
–	–	0.6 mM	Leu-Val-Ser (peptide)	–
–	–	2 mM	Tyr-Gln (peptide)	–
–	–	1.48 mM	RGGY [Arg-Gly-Gly-Tyr]	–
–	–	1.47 mM	APSY [Ala-Pro-Ser-Tyr]	–

Source: publication PMC7933229 (Scientific Reports, 2021)
